Key:
Type in all cases: in vivo
Wild Buckwheat = experiment: Pre-emergent herbicidal test, Wild Buckwheat; conditions: Table II; note: ranges in brackets are in %
From the text: (§1) A good grade of top soil is placed in aluminum pans and compacted to a depth of three-eights to one-half inch from the top of the pan. On the top of the soil is placed a number of seeds or vegetative propagules of various plant species. The soil required to level fill the pans after seeding or adding vegetative propagules is weighted into a pan. The soil and a known amount of the active ingredient applied in a solvent or as a wettable powder suspension are thoroughly mixed, and used to cover the prepared pans. After treatment, the pans are moved into a greenhouse bench where they are watered by subirrigation as needed to give adequate moisture for germination and growth.
(§2) Approximately 2 weeks after seeding and treating, the plants were observed and the results recorded. The herbicidal rating was obtained by means of a fixed scale based on the percent injury of each plant species. The ratings are defined as follows: […]
(§3) The compounds were further tested by utilizing the above procedure on the following plant species: […]

Quackgrass = experiment: Pre-emergent herbicidal test, Quackgrass; conditions: Table I; note: ranges in brackets are in %
From the text: as §1, §2

Wheat = experiment: Pre-emergent herbicidal test, Wheat; conditions: Table II; note: ranges in brackets are in %
From the text: as §1, §2, §3

Lambsquarters = experiment: Pre-emergent herbicidal test, Lambsquarters; note: ranges in brackets are in %
From the text: as §1, §2

Eleocharis kuroguwai = experiment: Greenhouse transplant rice test, EK; conditions: about 3 WAT, read-out: Percent Inhibition, EK
From the text: The test procedure used in this greenhouse test is as follows: Ray silt loam top soil containing about 0.05% by weight of krillium and sifted through a […] screen is fumigated about 5-10 days prior to use. Pots are then filled with said Ray silt loam soil to a level to allow for a 1 in. (2.54 cm) flooding depth. Rice plants (Bluebelle) of 2 to 3 weeks age are transplanted to the pots and bulbs or seeds of the test weeds also planted in the pots. The pots are then flooded and the test chemical applied to the surface of the flood water. The flood water is reduced to allow for germination of the Echinochloa crus-galli (barnyardgrass) seed and subsequently reflooded and maintained in that condition. Observations of percent inhibition using a scale of 0-100% are made about 3 weeks after transplant (WAT).
The test data in Table III for all compounds was obtained under identical test conditions. The weeds used in the tests herein have the following abbreviations in the tables: Echinochloa crus-galli (EC), Monochloria vaginalis (MV), Cyperus Serotinus (CS), Eleocharis Kuroguwai (EK) and Sagittaria trifolia (ST).

Sugarbeet = experiment: Pre-emergent herbicidal test, Sugarbeet; conditions: Table II; note: ranges in brackets are in %
From the text: as §1, §2, §3

Soybean = experiment: Pre-emergent herbicidal test, Soybean; conditions: Table II; note: ranges in brackets are in %
From the text: as §1, §2, §3

Rice = experiment: Pre-emergent herbicidal test, Rice; conditions: Table II; note: ranges in brackets are in %
From the text: as §1, §2, §3

Morningglory = experiment: Pre-emergent herbicidal test, Morningglory; note: ranges in brackets are in %
From the text: as §1, §2

Barnyardgrass = experiment: Pre-emergent herbicidal test, Barnyardgrass; note: ranges in brackets are in %
From the text: as §1, §2

CCCCOc1cccc(CC)c1N(CC)C(=O)CCl [Example 2, N-ethyl-2'-n-butoxy-6'-ethyl-2-chloroacetanilide]
1 (25-49): Rating, Wild Buckwheat (Wild Buckwheat; 1.12 kg/h) | Rating, Wheat (Wheat; 0.28 kg/h) | Rating, Sugarbeet (Sugarbeet; 0.28 kg/h) | Rating, Soybean (Soybean; 5.6 kg/h) | Rating, Rice (Rice; 0.28 kg/h) | Rating, Morningglory (Morningglory; Table II, 5.6 kg/h) | Rating, Barnyardgrass (Barnyardgrass; Table II, 0.01 kg/h)
2 (50-74): Rating, Wild Buckwheat (Wild Buckwheat; 5.6 kg/h) | Rating, Wheat (Wheat; 1.12 kg/h) | Rating, Lambsquarters (Lambsquarters; Table II, 1.12 kg/h) | Rating, Sugarbeet (Sugarbeet; 1.12 kg/h) | Rating, Sugarbeet (Sugarbeet; 5.6 kg/h) | Rating, Morningglory (Morningglory; Table I, 11.2 kg/h)
0 (0-24): Rating, Wild Buckwheat (Wild Buckwheat; 0.01 kg/h) | Rating, Wild Buckwheat (Wild Buckwheat; 0.06 kg/h) | Rating, Wild Buckwheat (Wild Buckwheat; 0.28 kg/h) | Rating, Wheat (Wheat; 0.01 kg/h) | Rating, Wheat (Wheat; 0.06 kg/h) | Rating, Lambsquarters (Lambsquarters; Table II, 0.01 kg/h) | Rating, Lambsquarters (Lambsquarters; Table II, 0.06 kg/h) | Rating, Lambsquarters (Lambsquarters; Table II, 0.28 kg/h) | Rating, Sugarbeet (Sugarbeet; 0.01 kg/h) | Rating, Sugarbeet (Sugarbeet; 0.06 kg/h) | Rating, Soybean (Soybean; 0.01 kg/h) | Rating, Soybean (Soybean; 0.06 kg/h) | Rating, Soybean (Soybean; 0.28 kg/h) | Rating, Soybean (Soybean; 1.12 kg/h) | Rating, Rice (Rice; 0.01 kg/h) | Rating, Rice (Rice; 0.06 kg/h) | Rating, Morningglory (Morningglory; Table I, 5.6 kg/h) | Rating, Morningglory (Morningglory; Table II, 0.01 kg/h) | Rating, Morningglory (Morningglory; Table II, 0.06 kg/h) | Rating, Morningglory (Morningglory; Table II, 0.28 kg/h) | Rating, Morningglory (Morningglory; Table II, 1.12 kg/h)
100%: inhibition at 280 g/ha (Eleocharis kuroguwai; 0.28 Kg/Ha) | inhibition at 560 g/ha (Eleocharis kuroguwai; 0.56 Kg/Ha) | inhibition at 1120 g/ha (Eleocharis kuroguwai; 1.12 Kg/Ha) | inhibition at 2240 g/ha (Eleocharis kuroguwai; 2.24 Kg/Ha)
3 (75-100): Rating, Quackgrass (Quackgrass; 5.6 kg/h) | Rating, Quackgrass (Quackgrass; 11.2 kg/h) | Rating, Wheat (Wheat; 5.6 kg/h) | Rating, Lambsquarters (Lambsquarters; Table I, 5.6 kg/h) | Rating, Lambsquarters (Lambsquarters; Table I, 11.2 kg/h) | Rating, Lambsquarters (Lambsquarters; Table II, 5.6 kg/h) | Rating, Rice (Rice; 1.12 kg/h) | Rating, Rice (Rice; 5.6 kg/h) | Rating, Barnyardgrass (Barnyardgrass; Table I, 5.6 kg/h) | Rating, Barnyardgrass (Barnyardgrass; Table I, 11.2 kg/h) | Rating, Barnyardgrass (Barnyardgrass; Table II, 0.06 kg/h) | Rating, Barnyardgrass (Barnyardgrass; Table II, 0.28 kg/h) | Rating, Barnyardgrass (Barnyardgrass; Table II, 1.12 kg/h) | Rating, Barnyardgrass (Barnyardgrass; Table II, 5.6 kg/h)
